The subject of data set [1] is 24-month-old male C57BL/6 N mice. Kind of data set: Age-related cardiac dysfunction in aged mice. Format: in vivo, mouse. The text has this:
All experimental procedures were approved by the Ethics Review Committee for Animal Experimentation at Kumamoto University, Kumamoto, Japan (approval No. A 2024-083). Procedures followed the guidelines and recommendations outlined by the ILAR Guide for the Care and Use of Laboratory Animals (8th Edition, 2011). Prior to tissue collection, mice were euthanized under isoflurane anesthesia, followed by cervical dislocation to ensure rapid euthanasia, a procedure also employed during sacrifice for tissue harvesting. Euthanasia was performed when animals met the established criteria for humane endpoints, specifically a body weight loss exceeding 20% over a 3-day period or 25% over a 1-week period, in accordance with the Kumamoto University Ethics Review Committee for Animal Experimentation above. All animals fed a normal diet (CE-2, CLEA) were randomly assigned to two groups: tap water only and tap water supplemented with AcA-BRB (0.5 mg/mL). Mice were housed in an animal facility with lighting cycles automatically controlled (12 h light/12 h dark), maintained at a stable temperature of 22 ± 2 °C and a relative humidity of 40–80%. C57BL/6NJcl wild-type (WT) male mice aged 2, 20, and 24 months were used in this study. Mice were preconditioned by chest hair removal with a topical depilatory (FUJIFILM VisualSonics), anesthetized with 1.5–2.5% isoflurane administered via inhalation, and maintained in a supine position on a dedicated animal handling platform with limbs immobilized for electrocardiogram gating during imaging. Body temperature was kept constant by relaying signals from a rectal probe to a heating pad, while heart and respiratory rates were continuously monitored. Transthoracic echocardiography was performed using a high-frequency ultrasound system dedicated to small-animal imaging (VisualSonics Vevo 3100, FUJIFILM VisualSonics) using a MS 400 linear array transducer (18–38 MHz). M-mode recording was performed at the midventricular level in the short-axis view. All images were analyzed using dedicated software (Vevo LAB version 5.7.1). LV wall thickness and internal cavity diameters at diastole (LVID;d) and systole (LVID;s) were measured. Percent LV fractional shortening (%FS) and Left Ventricular Ejection Fraction (LVEF) was calculated from M-mode measurements. To analyze cardiac diastolic function, trans-mitral flow velocity patterns and early diastolic mitral annular velocity (e’) were measured in the four-chamber view to calculate the ratio of early trans-mitral flow velocity (E) to e’ (E/e’). All procedures were performed under double-blind conditions with regard to genotype or treatment. Total RNA was extracted using a RNeasy Mini Kit (Qiagen). DNase-treated RNA was reverse-transcribed using a PrimeScript RT reagent Kit (Takara Bio). Heart tissue was homogenized using a multi-beads shocker (Yasui Kikai). Real-time quantitative RT-PCR was performed using TB Green Premix Ex Taq II (Takara Bio), and a Thermal Cycler Dice Real-Time System (Takara Bio). Relative transcript abundance was normalized to 18S rRNA levels. Primer sets used for RT-PCR are listed in Supplementary Table 3.

The test system of data set [2] is C2C12 cells. Briefly: Mitochondrial membrane potential (JC-1). Format: cell-based, mouse. Particulars: C2C12, Q-BRB or AcA-BRB 5 or 10 μM, 48 h. On the procedure: Mitochondrial membrane potential was assessed using the JC-1 dye (JC-1, T3168, Thermo Fisher Scientific). Cells cultured in 96-well plates were washed twice with PBS and incubated with 1 μM JC-1 for 30 min at 37 °C in the dark. After incubation, cells were washed with PBS, and fluorescence intensities at 590 nm (red) and 530 nm (green) were measured using a microplate reader. The 590/530 nm fluorescence ratio was calculated and used as an index of mitochondrial membrane potential.

Data set [3] concerns C2C12 cells. Kind of data set: Mitochondrial morphology analysis (anti-Tom20, MiNA). Format: cell-based, mouse. Particulars: C2C12, Q-BRB or AcA-BRB 10 μM, 48 h. As to the method: Cells were fixed with 4% paraformaldehyde in PBS for 15 min at 37 °C, washed three times with PBS, and permeabilized with 0.1% Triton X-100 in PBS for 10 min at room temperature (RT). After three additional washes with PBS, cells were blocked with 10% bovine serum albumin (BSA) in PBS for 10 min at RT. Cells were incubated with anti-Tom20 primary antibody (1:750 dilution, 11802-1-AP, Proteintech) in PBS containing 5% BSA for 1 h at RT, followed by three PBS washes. Hoechst 33342 (1:2000 dilution) and Alexa Fluor-conjugated secondary antibody (1:500 dilution, A11029, Invitrogen) in PBS containing 5% BSA were applied for 30 min at RT.
After three final PBS washes, cells were mounted with Fluorescent Mounting Medium (S3023, Dako), and imaged using an FV3000 confocal laser scanning microscope (Olympus). Images were acquired as Z-stacks with 0.2 μm intervals and reconstructed into maximum intensity projections using Fiji/ImageJ software.
Mitochondrial morphology was quantified using the MiNA plugin for Fiji (https://imagej.net/plugins/mina). Thirty cells per group were randomly selected for analysis. Average mitochondrial length and other morphological parameters were calculated according to the plugin’s standard analysis pipeline.

Data set [4] relates to mitochondria isolated from hearts of aged mice. Kind of data set: Oxygen consumption analysis of isolated cardiac mitochondria. Format: in vivo, mouse. Particulars: AcA-BRB 0.5 mg/mL in drinking water. On the procedure: Mouse heart tissue was homogenized in mitochondrial isolation buffer (210 mM mannitol, 70 mM sucrose, 5 mM HEPES-KOH, 1 mM EGTA, 0.5% fatty acid-free BSA, pH 7.2) using a glass-teflon homogenizer. Homogenates were centrifuged at 27,000 × g for 10 min at 4 °C, and the resulting pellets were resuspended in mitochondrial isolation buffer. Samples were centrifuged at 500 × g for 5 min at 4 °C, and the supernatants were collected and centrifuged at 10,000 × g for 5 min at 4 °C. The pellet was then resuspended in mitochondrial isolation buffer and centrifuged for 5 min at 10,000 × g at 4 °C. The resulting pellets were suspended in BSA-free mitochondrial isolation buffer, and mitochondrial protein concentration was determined using the Bio-Rad Protein Assay Dye Reagent (Bio-Rad Laboratories). Samples were then incubated with an equal volume of mitochondrial isolation buffer and subjected to oxygen consumption analysis.
Isolated mitochondria were diluted with mitochondrial assay solution (220 mM mannitol, 70 mM sucrose, 2 mM HEPES-KOH, 1 mM EGTA, 10 mM KH2PO4, 5 mM MgCl2, 0.2% fatty acid-free BSA, 2 mM malate, 10 mM pyruvate, pH 7.2) to 80 μg/mL. […] OCR was measured under basal conditions and after each injection using an XFe24 extracellular flux analyzer (Seahorse Bioscience).

Where [5] appears, read: AcA-BRB 0.5 mg/mL in drinking water, 24-month-old mice, vs control.
Where [6] appears, read: AcA-BRB 0.5 mg/mL in drinking water, aged mice.

On to `COc1ccc2cc3[n+](cc2c1O)CCc1cc2c(cc1-3)OCO2` [berberrubine], for which the “blood pressure and heart rate vs control mice” value in data set [1] (24-month-old mice, 3 months of treatment with AcA-BRB) is given as “comparable”. Besides, the “age-related progression of left ventricular dilatation, systolic dysfunction and diastolic dysfunction (echocardiography)” value in data set [1] (AcA-BRB 0.5 mg/mL in drinking water, 24-month-old mice, after 12 weeks, vs control) is reported as “ameliorated”. In data set [1] (setting [5]), the “cardiac hypertrophy (HW/TL ratio, histology) and pulmonary congestion (LW/TL ratio)” value is on record as “improved”; the “upregulation of genes associated with heart failure and cardiac fibrosis (qRT-PCR, heart)” value was “blocked”. In data set [1] (setting [6]), the “LC3A/B II/I ratio in heart tissues (western blot)” value is reported as “increase”; the “expression of genes associated with ROS-scavenging systems (heart)” value is “upregulated”; the “expression of genes associated with mitochondrial biogenesis, dynamics and mitophagy (heart)” value is “significantly increased”; the “p62 levels in heart tissues (western blot)” value is “decrease”. In addition, the “mitochondrial membrane potential (JC-1 590/530 nm)” value in data set [2] is given as “remained unchanged”. Moreover, the mitochondrial elongation result in data set [3] is “significantly enhanced”. Further, the “ROS production (4-HNE in isolated cardiac mitochondria)” value in data set [4] is reported as “mild rise”. For the same molecule, the “OCR of mitochondria isolated from hearts” value in data set [4] (vs controls) is given as “improved”.

Source of the values: paper PMC13091788 (NPJ Aging, 2026).
